According to patent publication US20240150356A1, “Pyrimidine amide compounds and use thereof” (ALPHALA CO., LTD., priority 2019, published 2024):
Where two headings read alike, the source gives them in different places.

Test system: Hep3B cells (hepatocellular carcinoma cell line)
Assay: In vitro MTS cell viability assay (NCI-60 methodology), Hep3B
Assay type: cell-based
Conditions: Homo sapiens, 48 h, 2 days drug incubation, 50% reduction vs time zero, read-out: Hep3B LC50
Outline: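 Hep3B cells given five 2-fold dilutions of compound for 2 days, with viability by MTS measured at time zero and at end. LC50 is the concentration giving a 50% fall in viable cells relative to the start of treatment, per NCI-60 formula.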

Which LC50 (Table 6, MTS) does the source give for `O=C(Nc1nc(N2CCC[C@H]2CO)nc2c1cnn2-c1ccc(F)cc1)c1ccc([N+](=O)[O-])s1` [Compound 6-102, (S)—N-(1-(4-fluorophenyl)-6-(2-(hydroxymethyl)pyrrolidin-1-yl)-1H-pyrazolo[3,4-d]pyrimidin-4-yl)-5-nitrothiophene-2-carboxamide] here?
Its LC50 is 1300 nM.

With `O=C(Nc1nc(N2CCOCC2)nc2c1cnn2-c1ccccc1)c1ccc([N+](=O)[O-])s1` [Compound 5-7, N-(6-morpholino-1-phenyl-1H-pyrazolo[3,4-d]pyrimidin-4-yl)-5-nitrothiophene-2-carboxamide] as the compound, how does the LC50 (Table 5, MTS) read?
Its LC50 is 1460 nM.

Which LC50 (Table 6, MTS) does the source give for `O=C(Nc1nc(N2CCCCC2)nc2c1cnn2-c1ccc(Cl)cc1)c1ccc([N+](=O)[O-])s1` [Compound 6-47, N-(1-(4-chlorophenyl)-6-(piperidin-1-yl)-1H-pyrazolo[3,4,d]pyrimidin-4-yl)-5-nitrothiophene-2-carboxamide] here?
Its LC50 is 710 nM.

How did the LC50 (Table 4, MTS) turn out when `Cc1csc2c(NC(=O)c3ccc([N+](=O)[O-])s3)nc(-c3cc(C(F)(F)F)ccc3F)nc12` [Compound 4-13, N-(2-(2-fluoro-5-(trifluoromethyl)phenyl)-7-methylthieno[3,2-d]pyrimidin-4-yl)-5-nitrothiophene-2-carboxamide] was run?
The LC50 was 1700 nM.

With `O=C(Nc1nc(-c2ccc(OC(F)(F)F)cc2)nc2c1cnn2-c1ccc(C(F)(F)F)cn1)c1ccc([N+](=O)[O-])s1` [Compound 7-5, 5-nitro-N-(6-(4-(trifluoromethoxy)phenyl)-1-(5-(trifluoromethyl)pyridin-2-yl)-1H-pyrazolo[3,4-d]pyrimidin-4-yl)thiophene-2-carboxamide] as the compound, how does the LC50 (Table 7, MTS) read?
Its LC50 is 310 nM.

`CC(C)(C)c1ccc(-n2ncc3c(NC(=O)c4ccc([N+](=O)[O-])s4)nc(-c4ccc(F)cc4)nc32)cc1` [Compound 6-81, N-(1-(4-(tert-butyl)phenyl)-6-(4-fluorophenyl)-1H-pyrazolo[3,4-d]pyrimidin-4-yl)-5-nitrothiophene-2-carboxamide] was tested. Which LC50 (Table 6, MTS) did it give?
Its LC50 is 940 nM.

Which LC50 (Table 10, MTS) does the source give for `COc1ccc(-c2nc(NC(=O)c3ccc([N+](=O)[O-])s3)c3cnn(C4CCCCC4)c3n2)cc1OC` [Compound 10-48, N-(1-cyclohexyl-6-(3,4-dimethoxyphenyl)-1H-pyrazolo[3,4-d]pyrimidin-4-yl)-5-nitrothiophene-2-carboxamide] here?
The LC50 was 970 nM.

With `CN(C)Cc1ccc(-c2nc(NC(=O)c3ccc([N+](=O)[O-])s3)c3cnn(C4CCCCC4)c3n2)cc1` [Compound 10-29, N-(1-cyclohexyl-6-(4-((dimethylamino)methyl)phenyl)-1H-pyrazolo[3,4-d]pyrimidin-4-yl)-5-nitrothiophene-2-carboxamide] as the compound, how does the LC50 (Table 10, MTS) read?
The LC50 was 1510 nM.

For `CC(C)(C)OC(=O)N1CCC(n2cnc3c(NC(=O)c4ccc([N+](=O)[O-])s4)nc(-c4ccc(F)cc4)nc32)CC1` [Compound 4-20, tert-butyl 4-(2-(4-fluorophenyl)-6-(5-nitrothiophene-2-carboxamide)-9H-purin-9-yl) piperidine-1-carboxylate], which LC50 (Table 4, MTS) is on record?
The LC50 was greater than 1250 nM.

How did the LC50 (Table 10, MTS) turn out when `O=C(Nc1nc(-c2ccc(F)cc2)nc2c1cnn2C1CCC(F)(F)CC1)c1ccc([N+](=O)[O-])s1` [Compound 10-54, N-(1-(4,4-difluorocyclohexyl)-6-(4-fluorphenyl)-1H-pyrazolo[3,4-d]pyrimidin-4-yl)-5-nitrothiophene-2-carboxamide] was run?
Its LC50 is 920 nM.

How did the LC50 (Table 5, MTS) turn out when `O=C(Nc1nc(Sc2ccc(Cl)cc2)nc2c1cnn2-c1ccccc1)c1ccc([N+](=O)[O-])s1` [Compound 5-16] was run?
Its LC50 is 360 nM.

With `Cn1ncc2c(NC(=O)c3ccc([N+](=O)[O-])s3)nc(-c3ccccc3OC(F)(F)F)nc21` [Compound 1-8, N-(1-methyl-6-(2-(trifluoromethoxy)phenyl)-1H-pyrazolo[3,4-d]pyrimidin-4-yl)-5-nitrothiophene-2-carboxamide] as the compound, how does the LC50 (Table 1, MTS) read?
The LC50 was 2530 nM.

How did the LC50 (Table 10, MTS) turn out when `O=C(Nc1nc(-c2ccc(Cl)cc2F)nc2c1cnn2C1CCCCC1)c1ccc([N+](=O)[O-])s1` [Compound 10-45, N-(6-(4-chloro-2-fluorophenyl)-1-cyclohexyl-1H-pyrazolo[3,4-d]pyrimidin-4-yl)-5-nitrothiophene-2-carboxamide] was run?
The LC50 was 870 nM.

Which LC50 (Table 10, MTS) does the source give for `O=C(Nc1nc(-c2ccc(OC(F)(F)F)cc2)nc2c1cnn2C1CCCCC1)c1ccc([N+](=O)[O-])s1` [Compound 10-26, N-(1-cyclohexyl-6-(4-(trifluoromethoxy)phenyl)-1H-pyrazolo[3,4-d]pyrimidin-4-yl)-5-nitrothiophene-2-carboxamide] here?
Its LC50 is 680 nM.

How did the LC50 (Table 5, MTS) turn out when `O=C(Nc1nc(N2CCCC2)nc2c1cnn2-c1ccccc1)c1ccc([N+](=O)[O-])s1` [Compound 5-3, 5-nitro-N-(1-phenyl-6-(pyrrolidin-1-yl)-1H-pyrazolo[3,4-d]pyrimidin-4-yl)thiophene-2-carboxamide] was run?
Its LC50 is 4910 nM.

For `O=C(Nc1nc(-c2ccc(Cl)s2)nc2c1cnn2C1CCCCC1)c1ccc([N+](=O)[O-])s1` [Compound 10-8, N-(6-(5-chlorothiophen-2-yl)-1-cyclohexyl-1H-pyrazolo[3,4-d]pyrimidin-4-yl)-5-nitrothiophene-2-carboxamide], which LC50 (Table 10, MTS) is on record?
Its LC50 is 490 nM.

Which LC50 (Table 10, MTS) does the source give for `COCCOc1ccc(-c2nc(NC(=O)c3ccc([N+](=O)[O-])s3)c3cnn(C4CCCCC4)c3n2)cn1` [Compound 10-51, N-(1-cyclohexyl-6-(6-(2-methoxyethoxy)pyridin-3-yl)-1H-pyrazolo[3,4-d]pyrimidin-4-yl)-5-nitrothiophene-2-carboxamide] here?
The LC50 was 960 nM.

For `O=C(Nc1nc(Oc2ccccc2)nc2c1cnn2-c1ccccc1)c1ccc([N+](=O)[O-])s1` [Compound 5-13, 5-nitro-N-(6-phenoxy-1-phenyl-1H-pyrazolo[3,4-d]pyrimidin-4-yl)thiophene-2-carboxamide], which LC50 (Table 5, MTS) is on record?
The LC50 was greater than 5000 nM.

`COc1ccc(-c2nc(NC(=O)c3ccc([N+](=O)[O-])s3)c3cnn(C4CCCCC4)c3n2)cn1` [Compound 10-21, N-(1-cyclohexyl-6-(6-methoxypyridin-3-yl)-1H-pyrazolo[3,4-d]pyrimidin-4-yl)-5-nitrothiophene-2-carboxamide] was tested. Which LC50 (Table 10, MTS) did it give?
Its LC50 is 1120 nM.

`O=C(Nc1nc(-c2cc(F)cc(F)c2)nc2c1cnn2C1CCCCC1)c1ccc([N+](=O)[O-])s1` [Compound 10-41] was tested. Which LC50 (Table 10, MTS) did it give?
The LC50 was 790 nM.

With `CCOCCOCCOc1ccc(-c2nc(NC(=O)c3ccc([N+](=O)[O-])s3)c3cnn(-c4ccc(C)cc4)c3n2)cn1` [Compound 6-14] as the compound, how does the LC50 (Table 6, MTS) read?
The LC50 was 220 nM.

How did the LC50 (Table 7, MTS) turn out when `Cc1ccc(-c2nc(NC(=O)c3ccc([N+](=O)[O-])s3)c3cnn(Cc4ccccc4)c3n2)cn1` [Compound 7-17, N-(1-benzyl-6-(6-methylpyridin-3-yl)-1H-pyrazolo[3,4-d]pyrimidin-4-yl)-5-nitrothiophene-2-carboxamide] was run?
The LC50 was greater than 1250 nM.

`CCOc1cc(Cl)ccc1-c1nc(NC(=O)c2ccc([N+](=O)[O-])s2)c2cnn(-c3ccc(F)cc3)c2n1` [Compound 6-129, N-(6-(4-chloro-2-ethoxyphenyl)-1-(4-fluorophenyl)-1H-pyrazolo[3,4-d]pyrimidin-4-yl)-5-nitrothiophene-2-carboxamide] was tested. Which LC50 (Table 6, MTS) did it give?
Its LC50 is greater than 3000 nM.

For `O=C(Nc1nc(-c2ccc(OCCO)nc2)nc2c1cnn2-c1ccc(F)cc1)c1ccc([N+](=O)[O-])s1` [Compound 6-134, N-(1-(4-fluorophenyl)-6-(6-(2-hydroxyethoxy)pyridin-3-yl)-1H-pyrazolo[3,4,d]pyrimidin-4-yl)-5-nitrothiophene-2-carboxamide], which LC50 (Table 6, MTS) is on record?
Its LC50 is 220 nM.

How did the LC50 (Table 10, MTS) turn out when `N#Cc1ccc(-c2nc(NC(=O)c3ccc([N+](=O)[O-])s3)c3cnn(C4CCCCC4)c3n2)cc1` [Compound 10-20, N-(6-(4-cyanophenyl)-1-cyclohexyl-1H-pyrazolo[3,4-d]pyrimidin-4-yl)-5-nitrothiophene-2-carboxamide] was run?
Its LC50 is 1200 nM.

Which LC50 (Table 10, MTS) does the source give for `CC1CC(C)CC(n2ncc3c(NC(=O)c4ccc([N+](=O)[O-])s4)nc(-c4ccc(F)cc4)nc32)C1` (stereo not shown) [Compound 10-67, N-(1-(3,5-dimethylcyclohexyl)-6-(4-fluorophenyl)-1H-pyrazolo[3,4-d]pyrimidin-4-yl)-5-nitrothiophene-2-carboxamide] here?
Its LC50 is 650 nM.

Which LC50 (Table 3, MTS) does the source give for `CC(C)n1cc2nc(-c3ccc(C(C)(C)C)cc3)nc(NC(=O)c3ccc([N+](=O)[O-])s3)c2c1` [Compound 3-12, N-(2-(4-(tert-butyl)phenyl)-6-isopropyl-6H-pyrrolo[3,4-d]pyrimidin-4-yl)-5-nitrothiophene-2-carboxamide] here?
Its LC50 is greater than 10000 nM.

How did the LC50 (Table 8, MTS) turn out when `COC(=O)c1ccc(-c2nc(NC(=O)c3ccc([N+](=O)[O-])s3)c3cnn(C4CCCCCC4)c3n2)cc1` [Compound 8-12, methyl 4-(1-cycloheptyl-4-(5-nitrothiophene-2-carboxamido)-1H-pyrazolo[3,4-d]pyrimidin-6-yl)benzoate] was run?
The LC50 was 470 nM.

How did the LC50 (Table 6, MTS) turn out when `O=C(Nc1nc(-c2ccc(Cl)cc2)nc2c1cnn2-c1cccc(F)c1)c1ccc([N+](=O)[O-])s1` [Compound 6-91, N-(6-(4-chlorophenyl)-1-(3-fluorophenyl)-1H-pyrazolo[3,4-d]pyrimidin-4-yl)-5-nitrothiophene-2-carboxamide] was run?
Its LC50 is 180 nM.

For `COc1ccc(-n2ncc3c(NC(=O)c4ccc([N+](=O)[O-])s4)nc(NC4CCCCC4)nc32)cc1` [Compound 6-15, N-(6-(cyclohexylamino)-1-(4-methoxyphenyl)-1H-pyrazolo[3,4-d]pyrimidin-4-yl)-5-nitrothiophene-2-carboxamide], which LC50 (Table 6, MTS) is on record?
The LC50 was greater than 1250 nM.

How did the LC50 (Table 7, MTS) turn out when `O=C(Nc1nc(-c2ccc(Cl)cc2)nc2c1cnn2-c1ccc(F)cc1F)c1ccc([N+](=O)[O-])s1` [Compound 7-14] was run?
The LC50 was 580 nM.
